Values quoted from earlier work in patent US20190185438A1 (Tonix Pharmaceuticals Holding Corp., priority 2016, published 2019).
Like-named read-outs stand apart in the source and are kept apart here. Marks after values point to notes of the source that are not given here.

How the values were obtained:
[1] = test system: patients with fibromyalgia
[2] = test system: patients with fibromyalgia; conditions: 8 weeks
[3] = 4 mg/day, week 14, 10-point scale, p <0.001

CCOc1ccccc1O[C@@H](c1ccccc1)[C@@H]1CNCCO1 [Esreboxetine, (2S)-2-[(S)-(2-ethoxyphenoxy)-phenylmethyl]morpholine]
GFI score compared to placebo ([1]; 4 mg/day and 8 mg/day, 14 weeks, P=0.001): significant improvement
GFI score, treatment difference [1, 3]: −0.64* (10-point scale)
Pain score, treatment difference [1, 3]: −0.74* (10-point scale)
FIQ score, treatment difference ([1]; 4 mg/day, week 14, 100-point scale, p <0.001): −7.12* (100-point
PGIC, much improved or very much improved ([1]; 4 mg/day, week 14, p 0.002): 41.7%**
Tolerability ([1]; 14 weeks): generally well tolerated
PGIC score compared to placebo ([1]; all doses (4, 8, 10 mg/day), 14 weeks, P≤0.007): significant improvement
FIQ score compared to placebo ([1]; all doses (4, 8, 10 mg/day), 14 weeks, P≤0.023): significant improvement
Pain score compared to placebo ([1]; all doses (4, 8, 10 mg/day), 14 weeks, P≤0.025): significant improvement
Tolerability [2]: generally well-tolerated
Pain scores compared to placebo ([2]; 2 mg/day raised to 8 mg/day or maximum tolerated dose): statistically significant reductions
Patients discontinued due to adverse events ([2]; placebo 2.3%): 8.2%
